Where two headings read alike, the source gives them in different places.
What was measured:
Solubility at pH 7.4 = assay type: physicochemical
[1] = system: Asexual parasites of P. falciparum strain 3D7; test: In vitro drug activity on asexual parasites (SYBR Green assay); assay type: cell-based, Plasmodium falciparum
In short: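 SYBR Green I fluorescence (ex 490, em 520 nm) was read after freeze-thaw lysis and 30 min staining at room temperature. Before that, drug-treated cultures (0.5% parasitemia, 2% hematocrit, DMSO ≤0.5%) were incubated 72 h, in duplicate.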

[2] = system: Stage III-V gametocytes (blood stage P. falciparum parasites); test: In vitro drug activity on gametocytes (AlamarBlue viability assay); assay type: cell-based, Plasmodium falciparum; details: for EC50: read-out: Gametocyte EC50
In short: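 Viability was measured by AlamarBlue fluorescence (Ex 525/Em 598 nm) after 24 h dye incubation following 72 h compound exposure at 37° C, 5% CO2. Gametocytes, stage III–V from strains 3D7, HB3 and Dd2, were NAG/Percoll-enriched and plated at 20,000 cells/well.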

PAMPA permeability = assay type: in vitro ADME
[3] = Microsomal stability (rat); assay type: in vitro ADME; details: rat microsomes
mTOR = mTOR (Homo sapiens, UniProt P42345); test: mTOR activity (no method described); assay type: biochemical
[4] = P. falciparum 3D7 asexual parasites, 72 h, SYBR Green
[5] = P. falciparum stage III-V gametocytes, 72 h incubation, AlamarBlue

| Sol @ pH 7.4 (ug/mL) (Solubility at pH 7.4) | EC50 [1, 4] [µM] | PAMPA Permeability (×10^6 cm/s) (PAMPA permeability) | Microsomal Stability (rat) T1/2 [3] [min] | Sol @ pH 7.4 (Solubility at pH 7.4) [ug/mL] | EC50 [1] [µM] | PAMPA Permeability (PAMPA permeability) [nm/s] | mTOR (mTOR) [nM] | Structure (SMILES) | EC50 [2, 5] [µM] | EC50 [2] [µM] | Gametocyte EC50 [2] |
| --- | --- | --- | --- | --- | --- | --- | --- | --- | --- | --- | --- |
| 57.74 | 0.45 | 8.76 ×10^6 cm/s | – | – | – | – | – | CCN(CC)Cc1ccc(-c2ccc3ncc4ccc(=O)n(-c5ccc6c(c5)CNC6=O)c4c3c2)cc1 [Compound 363] | 0.86 | – | – |
| 6.5 | 1.28 | 2.9 ×10^6 cm/s | >30 | – | – | – | – | NC1(c2ccc(-c3ccc4ncc5ccc(=O)n(-c6ccc7c(c6)CNC7=O)c5c4c3)cc2)CCC1 [Compound 368] | 2.19 | – | – |
| <1.0 | 3.19 | 235.8 ×10^6 cm/s | 4.3 | – | – | – | – | COC(=O)c1cc(-c2ccc3ncc4ccc(=O)n(-c5ccc(S(C)(=O)=O)cc5)c4c3c2)ccc1Cl [Compound 49] | 1.99 | – | – |
| <0.10 | – | 1527.98 ×10^6 cm/s | 13.5 | – | – | – | – | CS(=O)(=O)c1ccc(-n2c(=O)ccc3cnc4ccc(-c5ccc(Cl)cc5)cc4c32)cc1N1CCOCC1 [Compound 58] | 0.89 | – | – |
| – | – | – | 16.9 | <1.0 | 0.0467 | 10500 | – | CNC(=O)c1ccc(-n2c(=O)ccc3cnc4ccc(-c5ccc(Cl)cc5)cc4c32)cc1 [Compound 99] | – | 0.13 | – |
| 0.01 | – | 716.98 ×10^6 cm/s | >30.00 | – | – | – | – | CS(=O)(=O)c1cccc(-n2c(=O)ccc3cnc4ccc(-c5ccc(Cl)cc5)cc4c32)c1 [Compound 56] | 1.55 | – | – |
| <1.0 | – | 238.8 ×10^6 cm/s | 19.2 | – | – | – | – | O=C1NCc2ccc(-n3c(=O)ccc4cnc5ccc(-c6ccc(Cl)cc6)cc5c43)cc21 [Compound 344] | 1.51 | – | – |
| <1.0 | – | <1.0 ×10^6 cm/s | >30.0 | – | – | – | – | O=C1NCc2cc(-n3c(=O)ccc4cnc5ccc(-c6ccc(Cl)cc6)cc5c43)ccc21 [Compound 339] | 0.00919 | – | – |
| >72.00 | 0.879 | 1209.2 ×10^6 cm/s | – | – | – | – | – | CN(C)Cc1ccc(-c2ccc3ncc4ccc(=O)n(-c5ccc6c(c5)CCC(=O)N6C)c4c3c2)cc1 [Compound 358] | 2.18 | – | – |
| <1 | – | 1449.1 ×10^6 cm/s | 1.7 | – | – | – | – | CN(C)Cc1cc(-n2c(=O)ccc3cnc4ccc(-c5ccc(Cl)cc5)cc4c32)ccc1S(C)(=O)=O [Compound 67] | 1.34 | – | – |
| <1 | – | 135 ×10^6 cm/s | 1.4 | – | – | – | – | CS(=O)(=O)c1ccc(-n2c(=O)ccc3cnc4ccc(-c5ccc(Cl)cc5)cc4c32)cc1CN1CCOCC1 [Compound 66] | 0.35 | – | – |
| 21.28 | – | 1646.44 ×10^6 cm/s | >30.00 | – | – | – | – | CN(C)Cc1cccc(-c2ccc3ncc4ccc(=O)n(-c5ccc(S(C)(=O)=O)cc5)c4c3c2)c1 [Compound 60] | 1.95 | – | – |
| >71.00 | – | 788.14 ×10^6 cm/s | 9.45 | – | – | – | – | CN(C)Cc1ccc(-c2ccc3ncc4ccc(=O)n(-c5cccc(S(C)(=O)=O)c5)c4c3c2)cc1 [Compound 55] | 5.33 | – | – |
| <1.0 | 0.0218 | <9.7 ×10^6 cm/s | – | – | – | – | – | Nc1ccc(-c2ccc3ncc4ccc(=O)n(-c5ccc6c(c5)CC(=O)N6)c4c3c2)cn1 [Compound 389] | 0.0653 | – | – |
| 5.62 | – | 58.31 ×10^6 cm/s | >30.00 | – | – | – | – | CS(=O)(=O)c1ccc(-n2c(=O)ccc3cnc4ccc(-c5ccc(N)nc5)cc4c32)cc1N1CCOCC1 [Compound 83] | 0.0747 | – | – |
| 49.68 | – | 50.85 ×10^6 cm/s | 7.1 | – | – | – | – | CS(=O)(=O)c1cccc(-n2c(=O)ccc3cnc4ccc(-c5ccc(N)nc5)cc4c32)c1 [Compound 80] | 0.214 | – | – |
| 10 | – | 5.1 ×10^6 cm/s | – | – | – | – | – | C[S+]([O-])c1ccc(-n2c(=O)ccc3cnc4ccc(-c5ccc(N)nc5)cc4c32)cc1 (centres unmarked) [Compound 81] | 0.0339 | – | – |

| Sol @ pH 7.4 (ug/mL) (Solubility at pH 7.4) | EC50 [1, 4] [µM] | PAMPA Permeability (×10^6 cm/s) (PAMPA permeability) | Microsomal Stability (rat) T1/2 [3] [min] | Sol @ pH 7.4 (Solubility at pH 7.4) [ug/mL] | EC50 [1] [µM] | PAMPA Permeability (PAMPA permeability) [nm/s] | mTOR (mTOR) [nM] | Structure (SMILES) | EC50 [2, 5] [µM] | EC50 [2] [µM] | Gametocyte EC50 [2] |
| --- | --- | --- | --- | --- | --- | --- | --- | --- | --- | --- | --- |
| 14.8 | 1.24 | 47.8 ×10^6 cm/s | – | – | – | – | – | COC(=O)CN1Cc2cc(-n3c(=O)ccc4cnc5ccc(-c6ccc(CN(C)C)cc6)cc5c43)ccc2C1=O [Compound 366] | 3.76 | – | – |
| 11.3 | – | 3.9 ×10^6 cm/s | >30 | – | – | – | – | Nc1ccc(-c2ccc3ncc4ccc(=O)n(-c5ccc6c(c5)C(=O)NC6=O)c4c3c2)cn1 [Compound 395] | 46 | – | – |
| 11.8 | 0.0282 | 2 ×10^6 cm/s | – | – | – | – | – | Nc1ccc(-c2ccc3ncc4ccc(=O)n(-c5ccc6c(c5)CNC6=O)c4c3c2)cn1 [Compound 388] | 0.0882 | – | – |
| <1.0 | – | <1.0 ×10^6 cm/s | >30.0 | – | – | – | – | CCS(=O)(=O)c1ccc(-n2c(=O)ccc3cnc4ccc(-c5ccc(Cl)cc5)cc4c32)cc1 [Compound 27] | 0.108 | – | – |
| – | – | – | >30.0 | <1.0 | 0.0075 | – | 224.6 | O=C(c1ccc(-n2c(=O)ccc3cnc4ccc(-c5ccc(CO)cc5)cc4c32)cc1)N1CCOCC1 [Compound 120] | – | 0.0358 | – |
| 6.26 | 0.00931 | <1.10 ×10^6 cm/s | – | – | – | – | – | Nc1ccc(-c2ccc3ncc4ccc(=O)n(-c5ccc6c(c5)CCNC6=O)c4c3c2)cn1 [Compound 393] | 0.0307 | – | – |
| – | – | – | >30.0 | <1.0 | 0.219 | – | 100000 | Cc1ccc(C#N)cc1-n1c(=O)[nH]c2cnc3ccc(-c4ccc(Cl)cc4)cc3c21 [Compound 399] | – | 0.522 | – |
| – | – | – | >30.0 | 19.8 | 0.241 | – | 1135 | NCc1ccc(-c2ccc3ncc4ccc(=O)n(-c5ccc(C(=O)N6CCOCC6)cc5)c4c3c2)cc1 [Compound 111] | – | 0.285 | – |
| – | – | – | >30.0 | >80.0 | 14.4 | – | 4734 | O=C(O)c1cc(-c2ccc3ncc4ccc(=O)n(-c5ccc(C(=O)N6CCOCC6)cc5)c4c3c2)ccc1Cl [Compound 117] | – | – | Inactive |
| 7.03 | – | 725.27 ×10^6 cm/s | – | – | – | – | – | CN(C)Cc1ccc(-c2ccc3ncc4ccc(=O)n(-c5ccc(N6CCOCC6)c(C#N)c5)c4c3c2)cc1 [Compound 5] | 0.508 | – | – |
| – | – | – | 1.6 | <1.0 | 0.188 | – | 1518 | O=C(c1ccc(-n2c(=O)ccc3cnc4ccc(-c5ccc(Cl)cc5)cc4c32)cc1)N1C2CCCC1CC2 [Compound 137] | – | 1 | – |
| – | – | – | >30.0 | 8.8 | 0.409 | – | 6235 | NC(=O)c1cc(-c2ccc3ncc4ccc(=O)n(-c5ccc(C(=O)N6CCOCC6)cc5)c4c3c2)ccc1Cl [Compound 149] | – | 0.84 | – |
| – | – | – | 23.3 | <1.0 | 0.00695 | – | 431.3 | O=C(c1ccc(-n2c(=O)ccc3cnc4ccc(-c5ccc(Cl)c(O)c5)cc4c32)cc1)N1CCOCC1 [Compound 114] | – | 0.0136 | – |
| >70 | – | 2.3 ×10^6 cm/s | >30 | – | – | – | – | O=C1NCc2cc(-n3c(=O)ccc4cnc5ccc(-c6ccc(CN7CCC7)cc6)cc5c43)ccc21 [Compound 378] | 1.55 | – | – |
| 55.9 | 0.481 | <1.8 ×10^6 cm/s | – | – | – | – | – | O=C(O)CN1Cc2cc(-n3c(=O)ccc4cnc5ccc(-c6ccc(Cl)cc6)cc5c43)ccc2C1=O [Compound 365] | 30.6 | – | – |
| – | – | – | 10.8 | 1.1 | 0.459 | – | 1439 | O=C(c1ccc(-n2c(=O)ccc3cnc4ccc(-c5ccc(CCN6CCOCC6)cc5)cc4c32)cc1)N1CCOCC1 [Compound 182] | – | 1.48 | – |
| – | – | – | 2.2 | 1.1 | 0.0408 | – | 9459 | Cc1cc(C(=O)N2CCOCC2)ccc1-n1c(=O)ccc2cnc3ccc(-c4ccc(Cl)cc4)cc3c21 [Compound 110] | – | 0.139 | – |

Reference: patent publication US11753408B2, “Compounds and method for blocking transmission of malarial parasite” (The United States of America, as represented by the …, priority 2016, dated 2023)
